Assays:
mAChR M1 = mAChR M1 (Homo sapiens, UniProt P11229); experiment: In vitro cellular calcium flux assay, positive allosteric modulation of mAChR M1; assay type: cell-based; conditions: BHK cells expressing mAChR M1; EC20 carbachol; Examples 76-80 and 82-89 slightly modified procedure
In short: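 Baby hamster kidney cells stably expressing human mAChR M1, loaded with Calcium 4 dye in HBSS/20 mM HEPES/2.5 mM probenecid for 30 min at 37 °C. An 11-point 1-in-3 compound dilution series was added and calcium rise read as fluorescence; positive allosteric modulator pEC50 and antagonist pIC50 derived.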

mAChR M2 = mAChR M2 (Homo sapiens (Human), UniProt P08172); experiment: In vitro cellular calcium flux assay, PAM, NAM and agonist modes, mAChR M2; assay type: cell-based
Experimental: (§1) Baby hamster kidney cells stably expressing human or rat mAChR M1 to M5 were utilised for primary and selectivity profiling activities. mAChR M2 and M4 cell lines also stably expressed the chimeric Gαqi5 G-protein.
(§2) Human mAChR M1, M3, M5 and rat M1 cells were grown in low glucose Dulbecco's Modified Eagle's Medium (DMEM) medium plus heat inactivated 10% fetal bovine serum (HI FBS) and 500 μg/ml hygromycin B^1. Human mAChR M2 and M4 cells were maintained as above with^2 the addition of 500 μg/ml G418 to the media. Cells were maintained in culture at 37° C./5% CO2 and passaged twice weekly by treatment with 0.05% Trypsin/EDTA detachment solution, centrifugation (200 g, 5 min) and re-suspension in fresh media. Following cell expansion, cells were cryopreserved at −80° C. by treatment with 0.05% Trypsin/EDTA detachment solution, centrifugation (200 g, 5 min) and re-suspension of the pellet in freezing media (90% HI FBS/10% DMSO^3) at 15E6 cells/ml^4.
(§3) Prior to assaying, cells were prepared by thawing at 37° C. in a water bath, centrifugation (200 g, 5 min) and re-suspension of the pellet in fresh media. 15000 cells per well were seeded in black, clear bottomed 384-well Greiner Bio-One plates in plating medium (DMEM/10% HI FBS) and incubated overnight at 37 C/5% CO2.
(§4) On the day of the assay, media was removed from each well and replaced with 50 μl^5 assay buffer (HBSS with 20 mM HEPES and 2.5 mM Probenecid) containing the calcium indicator, Calcium 4 (Molecular Devices). Cells were then incubated at 37° C./5% CO2 for 30 min and at room temperature.
(§5) Compound preparation was carried out by generation of 11-point, 1 in 3 serial dilution concentration response curves in 100% DMSO. Compound was then diluted 1 in 65^6 with assay buffer (HBSS with 20 mM HEPES and 2.5 mM Probenecid) prior to the addition of 10 ul^7 to the cells using a Tetra fluorometric imaging plate reader (Molecular Devices)^8. Compound driven increases in intracellular calcium flux was measured as an increase in fluorescence (494Ex, 516Em)^9.
(§6) Positive allosteric modulator pEC50 values and antagonist pIC50 values for each compound were then determined. […] The points of modification and the alternate reagents, concentrations or equipment employed in these examples were: ^1200 μg/ml hygromycin B; ^2G418 not added; ^3CELLBANKER 1; ^410E6; ^5 40 μl; ^6 1 in 99; ^7 20 μl; ^8FDSS6000 (Hamamatsu Photonics); ^9(480Ex, 540Em); ^10Spotfire (TIBCO).
(§7) Certain compounds were tested in PAM, NAM and agonist modes against mAChR M2, M3, M4 and M5.

mAChR M3 = mAChR M3 (Homo sapiens (Human), UniProt P20309); experiment: In vitro cellular calcium flux assay, PAM, NAM and agonist modes, mAChR M3; assay type: cell-based
Experimental: as §1, §2, §3, §4, §5, §6, §7

mAChR M4 = mAChR M4 (Homo sapiens (Human), UniProt P08173); experiment: In vitro cellular calcium flux assay, PAM, NAM and agonist modes, mAChR M4; assay type: cell-based
Experimental: as §1, §2, §3, §4, §5, §6, §7

mAChR M5 = mAChR M5 (Homo sapiens (Human), UniProt P08912); experiment: In vitro cellular calcium flux assay, PAM, NAM and agonist modes, mAChR M5; assay type: cell-based
Experimental: as §1, §2, §3, §4, §5, §6, §7

Male Lister Hooded rats = experiment: Novel Object Recognition test; assay type: in vivo; conditions: rat, 24 h delay
Experimental: The Novel Object Recognition test (NOR) is based on the greater spontaneous exploration of a novel object, compared with a familiar object, observed in rodents (Behav. Brain Res., 1988, 31(1), 47-59). […] Therefore, it is considered to be analogous to recognition memory tests used in human clinical testing. Male Lister Hooded rats were assessed for object recognition in a test apparatus comprising of a perspex test arena housed within a sound attenuating chamber. Video images of behaviour were captured by digital camera and recorded to a computer. Rats were habituated to the test arena on four occasions prior to testing. Habituation sessions replicated the test day sequence exactly with the exception of object presentation. On test days, each rat was placed into the test arena and 3 minutes later the rat was presented with two identical objects (plastic shapes). The time spent actively exploring the objects during a 3-minute test period (T1) was recorded. Following T1 rats were returned to home cages. After 24 hours each rat was again placed in the test arena and 3 minutes later was presented with one of the now familiar objects and a novel object, and again the time spent actively exploring the objects during a 3-minute test period (T2) was recorded. The presentation order and position of objects (left/right) was randomised within groups to prevent bias from order or place preference. Objects were cleaned with 70% ethanol solution between trials to remove any olfactory/taste cues. Compounds were administered by oral gavage at an appropriate pre-treatment time prior to T1 and T2 (n=12) at dosage ranges between 0.03 and 3 mg/kg. In some experiments the 5-HT6 receptor antagonist N-(3,5-dichloro-2-methoxyphenyl)-4-methoxy-3-(piperazin-1-yl)benzenesulfonamide (CAS 402713-80-8) (10 mg/kg p.o.; 4 h pre-treatment time) was included as a positive control. Vehicle controls (1% methylcellulose in water) were included for comparison in each study. Results are expressed as the d2 index (difference in time spent exploring novel and familiar objects/total object exploration in T2).

Chain of mAChR M4 (P08173 whole entry): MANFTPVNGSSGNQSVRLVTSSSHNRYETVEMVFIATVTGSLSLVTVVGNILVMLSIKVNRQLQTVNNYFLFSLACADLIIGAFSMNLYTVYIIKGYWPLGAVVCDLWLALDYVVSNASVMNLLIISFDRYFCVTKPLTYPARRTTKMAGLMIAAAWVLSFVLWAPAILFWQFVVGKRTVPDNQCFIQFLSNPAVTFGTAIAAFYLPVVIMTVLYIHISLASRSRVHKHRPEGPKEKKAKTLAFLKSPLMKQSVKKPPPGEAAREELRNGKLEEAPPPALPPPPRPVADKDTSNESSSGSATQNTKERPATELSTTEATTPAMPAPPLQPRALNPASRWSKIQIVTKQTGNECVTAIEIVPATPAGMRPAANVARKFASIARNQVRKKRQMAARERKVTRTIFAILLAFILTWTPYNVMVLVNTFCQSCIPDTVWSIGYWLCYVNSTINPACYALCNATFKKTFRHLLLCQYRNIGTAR
Chain of mAChR M1 (P11229 whole entry, looked up): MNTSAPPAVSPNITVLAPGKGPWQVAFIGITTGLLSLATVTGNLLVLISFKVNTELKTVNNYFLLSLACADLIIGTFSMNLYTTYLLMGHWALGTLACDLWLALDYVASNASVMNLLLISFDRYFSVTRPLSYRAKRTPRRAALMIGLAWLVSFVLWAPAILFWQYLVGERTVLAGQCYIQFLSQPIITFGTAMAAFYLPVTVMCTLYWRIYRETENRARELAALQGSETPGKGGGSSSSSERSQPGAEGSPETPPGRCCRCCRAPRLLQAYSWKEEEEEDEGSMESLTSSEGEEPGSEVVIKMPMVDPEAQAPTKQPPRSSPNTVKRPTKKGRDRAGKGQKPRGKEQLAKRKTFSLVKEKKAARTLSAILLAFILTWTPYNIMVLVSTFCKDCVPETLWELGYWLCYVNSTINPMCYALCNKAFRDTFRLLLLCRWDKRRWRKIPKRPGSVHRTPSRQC
Chain of mAChR M2 (P08172 whole entry): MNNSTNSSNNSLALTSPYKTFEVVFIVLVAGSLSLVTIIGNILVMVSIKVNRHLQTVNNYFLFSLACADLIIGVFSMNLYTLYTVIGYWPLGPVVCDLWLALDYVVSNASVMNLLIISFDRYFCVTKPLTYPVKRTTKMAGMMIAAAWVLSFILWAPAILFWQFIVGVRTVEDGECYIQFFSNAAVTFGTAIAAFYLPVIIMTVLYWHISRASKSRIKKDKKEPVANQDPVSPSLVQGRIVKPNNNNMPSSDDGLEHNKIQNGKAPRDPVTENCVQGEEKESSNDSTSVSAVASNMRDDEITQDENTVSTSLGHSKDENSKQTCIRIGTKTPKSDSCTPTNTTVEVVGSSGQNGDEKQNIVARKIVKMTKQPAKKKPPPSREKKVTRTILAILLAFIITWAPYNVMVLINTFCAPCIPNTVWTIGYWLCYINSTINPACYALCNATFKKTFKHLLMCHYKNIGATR
Chain of mAChR M5 (P08912 whole entry): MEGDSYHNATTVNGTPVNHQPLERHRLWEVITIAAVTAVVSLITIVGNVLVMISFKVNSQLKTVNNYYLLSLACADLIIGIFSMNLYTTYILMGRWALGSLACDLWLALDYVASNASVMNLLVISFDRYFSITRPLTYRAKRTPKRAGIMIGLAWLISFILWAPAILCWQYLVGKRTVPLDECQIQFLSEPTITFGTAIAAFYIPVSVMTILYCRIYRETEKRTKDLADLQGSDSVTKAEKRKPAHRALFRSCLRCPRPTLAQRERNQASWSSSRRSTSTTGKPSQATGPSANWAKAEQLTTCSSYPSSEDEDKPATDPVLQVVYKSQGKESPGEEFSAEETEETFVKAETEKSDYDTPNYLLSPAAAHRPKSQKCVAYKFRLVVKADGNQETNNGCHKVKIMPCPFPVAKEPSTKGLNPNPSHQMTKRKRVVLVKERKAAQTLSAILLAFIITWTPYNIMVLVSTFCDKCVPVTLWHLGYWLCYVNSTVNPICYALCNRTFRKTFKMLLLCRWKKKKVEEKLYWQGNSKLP
Chain of mAChR M3 (P20309 whole entry, looked up): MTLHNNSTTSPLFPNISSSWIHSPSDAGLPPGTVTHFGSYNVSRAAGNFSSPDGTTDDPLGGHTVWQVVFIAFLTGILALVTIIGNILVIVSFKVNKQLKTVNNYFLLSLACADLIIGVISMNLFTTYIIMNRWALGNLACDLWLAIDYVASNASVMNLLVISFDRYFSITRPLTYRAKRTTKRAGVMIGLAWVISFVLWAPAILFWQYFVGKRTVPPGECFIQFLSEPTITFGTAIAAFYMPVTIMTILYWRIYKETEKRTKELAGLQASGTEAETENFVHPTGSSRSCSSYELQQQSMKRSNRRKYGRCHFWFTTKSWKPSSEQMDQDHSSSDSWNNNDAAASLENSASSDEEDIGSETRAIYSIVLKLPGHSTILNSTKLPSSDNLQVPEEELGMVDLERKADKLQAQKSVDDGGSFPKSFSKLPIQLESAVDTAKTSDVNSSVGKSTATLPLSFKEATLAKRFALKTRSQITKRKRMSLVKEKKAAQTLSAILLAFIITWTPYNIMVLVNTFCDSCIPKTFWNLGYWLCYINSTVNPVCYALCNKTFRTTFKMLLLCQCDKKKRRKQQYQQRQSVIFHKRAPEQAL

| Compound | pEC50 for positive allosteric modulation (mAChR M1) | EC50 (mAChR M2) | EC50 (mAChR M3) | EC50 (mAChR M4) | EC50 (mAChR M5) | d2 index [mean ± SEM] (Male Lister Hooded rats; 0.1 mg/kg p.o.) | d2 index [mean ± SEM] (Male Lister Hooded rats; 0.3 mg/kg p.o.) | d2 index [mean ± SEM] (Male Lister Hooded rats; 1 mg/kg p.o.) | d2 index [mean ± SEM] (Male Lister Hooded rats; 3 mg/kg p.o.) | d2 index [mean ± SEM] (Male Lister Hooded rats; 0.03 mg/kg p.o.) |
| --- | --- | --- | --- | --- | --- | --- | --- | --- | --- | --- |
| O=C(NC1CCC(F)(F)C[C@@H]1O)c1cn(Cc2ccc(F)cc2)c2cccnc12 (single isomer, unassigned) [Example 34, N-(trans-4,4-Difluoro-2-hydroxycyclohexyl)-1-(4-fluorobenzyl)-1H-pyrrolo[3,2-b]pyridine-3-carboxamide] | 6.9 | > 10 µM | > 10 µM | > 10 µM | > 10 µM | [0.08 ± 0.08] | [0.24 ± 0.05]* | [0.23 ± 0.06]* | – | – |
| Cc1cc(Cn2cc(C(=O)N[C@H]3CCCC[C@@H]3O)c3ncccc32)ccc1F [Example 6, 1-(4-Fluoro-3-methylbenzyl)-N-((1S,2S)-2-hydroxycyclohexyl)-1H-pyrrolo[3,2-b]pyridine-3-carboxamide] | 6.7 | > 10 µM | > 10 µM | > 10 µM | > 10 µM | – | [0.11 ± 0.09] | [0.27 ± 0.08]* | [0.36 ± 0.09]** | – |
| O=C(N[C@H]1CCCC[C@@H]1O)c1cn(Cc2cccc(F)c2F)c2cccnc12 [Example 8, 1-(2,3-Difluorobenzyl)-N-((1S,2S)-2-hydroxycyclohexyl)-1H-pyrrolo[3,2-b]pyridine-3-carboxamide] | 6.5 | > 10 µM | > 10 µM | > 10 µM | > 10 µM | [0.09 ± 0.06] | [0.34 ± 0.06]*** | – | – | [0.00 ± 0.07] |
| Cc1ccnc2c(C(=O)N[C@H]3CCCC[C@@H]3O)cn(Cc3ccc(F)cc3)c12 [Example 10, 1-(4-Fluorobenzyl)-N-((1S,2S)-2-hydroxycyclohexyl)-7-methyl-1H-pyrrolo[3,2-b]pyridine-3-carboxamide] | 7.7 | > 10 µM | > 10 µM | > 10 µM | > 10 µM | [0.18 ± 0.09] | [0.30 ± 0.08]** | – | – | [0.18 ± 0.10] |
| Cc1ccnc2c(C(=O)N[C@H]3CCCC[C@@H]3O)cn(Cc3cccc(F)c3F)c12 [Example 11, 1-(2,3-Difluorobenzyl)-N-((1S,2S)-2-hydroxycyclohexyl)-7-methyl-1H-pyrrolo[3,2-b]pyridine-3-carboxamide] | 6.9 | > 10 µM | > 10 µM | > 10 µM | > 10 µM | – | [0.24 ± 0.06] | [0.24 ± 0.07] | [0.31 ± 0.06]** | – |
| COc1ccc(Cn2cc(C(=O)N[C@H]3CCCC[C@@H]3O)c3nccc(C)c32)cc1 [Example 12, N-((1S,2S)-2-Hydroxycyclohexyl)-1-(4-methoxybenzyl)-7-methyl-1H-pyrrolo[3,2-b]pyridine-3-carboxamide] | 7.7 | > 10 µM | > 10 µM | > 10 µM | > 10 µM | – | [0.13 ± 0.06] | [0.30 ± 0.05]*** | [0.33 ± 0.06]*** | – |
| COc1ccc(Cn2cc(C(=O)N[C@H]3CCCC[C@@H]3O)c3nccc(C)c32)cc1F [Example 13, 1-(3-Fluoro-4-methoxybenzyl)-N-((1S,2S)-2-hydroxycyclohexyl)-7-methyl-1H-pyrrolo[3,2-b]pyridine-3-carboxamide] | 7.9 | > 10 µM | > 10 µM | > 10 µM | > 10 µM | – | [0.09 ± 0.05] | [0.13 ± 0.07] | [0.25 ± 0.09]* | – |
